According to patent publication US10342776B2, “Compositions and methods for controlling infections” (priority 2004, dated 2019):

Assays:
Type in all cases: cell-based
[1] = system: Candida albicans (11 clinical isolates, hyphal phase); test: Hyphal phase Candida albicans growth on Todd Hewitt agar plates containing GML; conditions: 48 hours
Protocol: Candida albicans microorganisms were cultured on a Todd Hewitt agar plate for 48 hours at 37° C. in the presence of 7% CO2 to promote growth of hyphal forms. This plate was used to streak the microorganisms for isolation on Todd Hewitt agar plates containing 0, 10, 20, 50, or 100 μg/mL of GML. The plates were incubated for 48 hours and examined for Candida growth. The experiment was done in duplicate plates. The results obtained with duplicate plates were the same.
Organisms (at the hyphal phase) of 11 clinical isolates of Candida albicans were separately streaked on Todd Hewitt agar plates containing various concentrations of GML. The experiments were performed in duplicate. […] In contrast, the organisms grew on plates containing 0, 10 and 20 μg/ml.

[2] = system: Bacteroides fragilis ATCC 25285; test: Kinetics of growth inhibition of Bacteroides fragilis in WC broth with GML, plate colony counting
Protocol: The kinetics of growth-inhibition by GML of the obligate gram negative anaerobe Bacteroides fragilis ATCC 25285 was determined. An overnight culture of B. fragilis ATCC 25285 in Wilkens Chalgren (WC) broth was inoculated into fresh media (WC) to give a starting cell concentration of 1×10^7 cells/ml. […] […] Because growth of B. fragilis was inhibited by GML, it is expected that growth of the related gram negative anaerobe, Prevotella, would also be inhibited by GML.

[3] = system: Gardnerella vaginalis (clinical isolate); test: G. vaginalis liquid culture in dialyzable beef heart medium with GML, colony counting
Protocol: Cells (1.2×10^7/ml in a total volume of 25 ml of dialyzable beef heart medium) of a recent clinical isolate of the gram negative rod Gardnerella vaginalis in vitro were cultured for various lengths of time with various concentrations of GML. At the various time points, the concentration of bacteria in the cultures were determined by colony counting on chocolate agar plates. GML at concentrations as low as 5 μg/ml were bactericidal to G. vaginalis. […] This finding points to the likely efficacy of GML in vivo. Moreover, GML (5 μg/ml or greater) inhibited growth of G. vaginalis plated (0.1 ml at 1.2×10^7/ml) onto chocolate agar plates (Table 3; data obtained after 24 hours of culturing).

[4] = system: Candida albicans (five clinical isolates); test: Growth inhibition of five other clinical isolates of Candida albicans in liquid culture (absorbance at 600 nm, CFU/ml); conditions: for average CFU/ml after culturing: 6 hours, start about 10^6 CFU/ml
Protocol: Five clinical isolates of Candida albicans (separate from those tested in experiments described in Example 2) were tested for susceptibility to growth inhibition by GML. The data in FIG. 3 are the means of values obtained by separately testing each of the five clinical isolates. The experiments were performed in liquid culture as described in Example 2 except that, instead of measuring the number of organisms in the cultures by plating on agar plates, values of absorbance at 600 nm were determined at the indicated time points. An absorbance value of 6.5 corresponds to about 5×10^8 CFU/ml of Candida albicans. The growth of all of the isolates was inhibited by GML. Culturing for 6 hours 0.1 ml aliquots of the isolates (containing about 10^6 CFU/ml) in 100 μg/ml and 500 μg/ml of GML yielded an average of about 700 CFU/ml and about 400 CFU/ml, respectively.

## CCCCCCCCCCCC(=O)OCC(O)CO (stereo not drawn) [GML, glycerol monolaurate]
[1]; 10 and 20 μg/ml GML
  growth on agar plates: grew
[1]; 50 and 100 μg/ml GML
  growth on agar plates: failed to grow
[2]; GML 1 μg/ml, 4.5 hours
  Cells/ml ×10^7 at 4.5 hours: 16 Cells/ml ×10^7
[2]; GML 1 μg/ml
  Cells/ml ×10^7 at 25 hours: 130 Cells/ml ×10^7
[2]; GML 10 μg/ml, 4.5 hours
  Cells/ml ×10^7 at 4.5 hours: 1.4 Cells/ml ×10^7
[2]; GML 10 μg/ml
  Cells/ml ×10^7 at 25 hours: 150 Cells/ml ×10^7
[2]; GML 20 μg/ml, 4.5 hours
  Cells/ml ×10^7 at 4.5 hours: <0.01 Cells/ml ×10^7
  fold fewer bacteria than the control culture: at least 1,000 fold
[2]; GML 20 μg/ml, 24 hours
  regrowth of culture: regrowth was observed
[2]; GML 20 μg/ml
  Cells/ml ×10^7 at 25 hours: 200 Cells/ml ×10^7
[2]; GML 50 μg/ml, 4.5 hours
  Cells/ml ×10^7 at 4.5 hours: <0.01 Cells/ml ×10^7
[2]; GML 50 μg/ml
  Cells/ml ×10^7 at 25 hours: <10 Cells/ml ×10^7
[2]; GML 100 μg/ml, 4.5 hours
  Cells/ml ×10^7 at 4.5 hours: <0.001 Cells/ml ×10^7
[2]; GML 100 μg/ml
  Cells/ml ×10^7 at 25 hours: <10 Cells/ml ×10^7
[2]; GML 50 and 100 μg/ml
  growth of B. fragilis bacteria: inhibited the growth
[3]; GML 1 μg/ml
  Cells/ml (×10^7) at 6 hours: 13 Cells/ml (×10^7)
  Cells/ml (×10^7) at 24 hours: 208 Cells/ml (×10^7)
[3]; GML 5 μg/ml
  Cells/ml (×10^7) at 6 hours: 0.0002 Cells/ml (×10^7)
  Cells/ml (×10^7) at 24 hours: 0.0004 Cells/ml (×10^7)
[3]; GML 10 μg/ml
  Cells/ml (×10^7) at 6 hours: <0.000001 Cells/ml (×10^7)
  Cells/ml (×10^7) at 24 hours: <0.000001 Cells/ml (×10^7)
[3]; GML 20 μg/ml
  Cells/ml (×10^7) at 6 hours: <0.000001 Cells/ml (×10^7)
  Cells/ml (×10^7) at 24 hours: <0.000001 Cells/ml (×10^7)
[3]; GML 50 μg/ml
  Cells/ml (×10^7) at 6 hours: <0.000001 Cells/ml (×10^7)
  Cells/ml (×10^7) at 24 hours: <0.000001 Cells/ml (×10^7)
[3]; GML 100 μg/ml
  Cells/ml (×10^7) at 6 hours: <0.000001 Cells/ml (×10^7)
  Cells/ml (×10^7) at 24 hours: <0.000001 Cells/ml (×10^7)
[3]; GML 1000 μg/ml
  Cells/ml (×10^7) at 6 hours: <0.000001 Cells/ml (×10^7)
  Cells/ml (×10^7) at 24 hours: <0.000001 Cells/ml (×10^7)
[3]; liquid culture
  GML concentration bactericidal to G. vaginalis: ≥ 5 µg/mL
[4]; 100 μg/ml GML
  average CFU/ml after culturing: about 700 CFU/ml
[4]; 500 μg/ml GML
  average CFU/ml after culturing: about 400 CFU/ml
[4]; five clinical isolates, liquid culture, absorbance at 600 nm
  growth of the isolates: inhibited
